Values after ≈ are worked out from the molar mass of the structure shown. Read-outs that look alike come from different tables or passages of the source.
Columns and labels:
[1] = test system: Mtb BioA underexpression strain (BioA-UE); assay: microbe, parasite or virus in culture; assay type: cell-based, Mycobacterium tuberculosis
Mtb H37Rv [2] = assay: microbe, parasite or virus in culture; assay type: cell-based, Mycobacterium tuberculosis; details: for MIC50 WT+biotin: Mtb H37Rv with 1 μM supplemental biotin; for MIC: Mycobacterium tuberculosis, H37RV
Mtb H37Rv [3] = details: cited from earlier work
[4] = MIC that results in 50% inhibition

Compound: CC(=O)c1ccc(N2CCN(C(=O)c3ccc4c(c3)OCO4)CC2)cc1 [Compound 6, 1-(4-(4-(Benzo[d][1,3]dioxole-5-carbonyl)piperazin-1-yl)phenyl)-ethanone]
- MIC ([1]; Mycobacterium tuberculosis, read-out: MIC that results in 90% inhibition, BioA-UE): 1.7 µM (≈ 0.599 µg/mL)
- MIC50 WT+biotin (Mtb H37Rv [2]; [4]): >50 µM
- MIC (Mtb H37Rv [2]; read-out: MIC that results in 90% inhibition, WT+biotin): > 50 µM
- MIC (Mtb H37Rv [2]; read-out: MIC that results in 90% inhibition, WT-biotin): 23.4 µM (≈ 8.25 µg/mL)
- activity against whole-cell Mtb in biotin-supplemented medium (Mtb H37Rv [3]): no observed activity

Compound: CC(=O)c1ccc(N2CCN(C(=O)c3ccc(Cl)c(Cl)c3)CC2)cc1 [Compound 9, 1-(4-(4-(3,4-Dichlorobenzoyl)piperazin-1-yl)phenyl)ethanone]
- fold loss in potency against WT Mtb (Mtb H37Rv [2]; biotin-free medium, relative to 6): 2 fold

Compound: CC(=O)c1cccc(N2CCN(C(=O)c3cccc(Cl)c3)CC2)c1 [Compound 30, 1-(3-(4-(3-Chlorobenzoyl)piperazin-1-yl)phenyl)ethanone]
- fold loss in activity compared to para-acetyl 12 (Mtb H37Rv [2]): 10–50 fold

Compound: O=C1CCc2cc(N3CCN(C(=O)c4ccc5c(c4)OCO5)CC3)ccc21 [Compound 36, 5-(4-(Benzo[d][1,3]dioxole-5-carbonyl)piperazin-1-yl)-2,3-dihydro-1H-inden-1-one]
- MIC (Mtb H37Rv [2]; read-out: minimum inhibitory concentration (MIC) against WT Mtb): 1.7 µM (≈ 0.619 µg/mL)

Compound: CC(=O)c1ccc(-c2cn(Cc3cccc(Cl)c3)nn2)cc1 [Compound 37, 1-(4-(1-(3-Chlorobenzyl)-1H-1,2,3-triazol-4-yl)phenyl)ethanone]
- antitubercular activity (in words) (Mtb H37Rv [2]): inactive

Compound: CC(=O)c1ccc(-c2cn(Cc3cccc(Cl)c3)nn2)s1 [Compound 38, 1-(5-(1-(3-Chlorobenzyl)-1H-1,2,3-triazol-4-yl)thiophen-2-yl)-ethanone]
- antitubercular activity (in words) (Mtb H37Rv [2]): inactive

Compound: CC(=O)c1ccc(N2CCC(C(=O)c3ccc4c(c3)OCO4)CC2)cc1 [Compound 40, 1-(4-(4-(Benzo[d][1,3]dioxole-5-carbonyl)piperidin-1-yl)phenyl)-ethanone]
- antitubercular activity (in words) (Mtb H37Rv [2]): completely inactive

Compound: (3-Chlorophenyl)(4-(5-methoxypyridin-2-yl)piperazin-1-yl)-methanone [Compound 22]
- MIC50 BioA-UE ([1]; MIC that results in 50% inhibition, […]): 24.4 µM
- MIC50 WT+biotin (Mtb H37Rv [2]; [4]): >50 µM
- MIC50 WT-biotin (Mtb H37Rv [2]; MIC that results in 50% inhibition, Mtb H37Rv without supplemental biotin): 22.0 µM

From article PMC5590679 (Journal of medicinal chemistry, 2017)
